Data from ChEMBL document CHEMBL1201862, “PubChem BioAssay data set” (2004).
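Briefly, cells in 96-well plates were exposed to five compound concentrations for 48 h, and endpoints were estimated by linear interpolation. Here, GI50 denotes the concentration required for 50% inhibition of growth.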 Activity calls are given as the source filed them. No stated cut-off is given here; in the data, active = GI50 up to about 1.1 µM and inactive = higher.

Assays:
Assay in all cases: NCI-60 cell line screen, 48 h
MOLT-4 = tested on: MOLT-4
SF-268 = tested on: SF-268
OVCAR-5 = tested on: OVCAR-5
TK-10 = tested on: TK-10
OVCAR-4 = tested on: OVCAR-4
IGROV-1 = tested on: IGROV-1
ACHN = tested on: ACHN
NCI-H460 = tested on: NCI-H460
SF-539 = tested on: SF-539
HOP-62 = tested on: HOP-62
K562 = tested on: K562
A549 = tested on: A549
SNB-75 = tested on: SNB-75
KM12 = tested on: KM12
SK-MEL-5 = tested on: SK-MEL-5
RPMI-8226 = tested on: RPMI-8226
HOP-92 = tested on: HOP-92

Structure (SMILES)	GI50 (MOLT-4)	GI50 (SF-268)	GI50 (OVCAR-5)	GI50 (TK-10)	GI50 (OVCAR-4)	GI50 (IGROV-1)	GI50 (ACHN)	GI50 (NCI-H460)	GI50 (SF-539)	GI50 (HOP-62)	GI50 (K562)	GI50 (A549)	GI50 (SNB-75)	GI50 (KM12)	GI50 (SK-MEL-5)	GI50 (RPMI-8226)	GI50 (HOP-92)
CCOC(=O)c1c[nH]c2c(ccc3ncccc32)c1=O	> 100 µM (inactive)	> 100 µM (inactive)	> 100 µM (inactive)	> 100 µM (inactive)	> 100 µM (inactive)	> 100 µM (inactive)	> 100 µM (inactive)	> 100 µM (inactive)	> 100 µM (inactive)	> 100 µM (inactive)	> 100 µM (inactive)	> 100 µM (inactive)	> 100 µM (inactive)	> 100 µM (inactive)	> 100 µM (inactive)		
Cc1c(O)c(=O)ccn1CCN	> 100 µM (inactive)	> 100 µM (inactive)	> 100 µM (inactive)	> 100 µM (inactive)	> 100 µM (inactive)	> 100 µM (inactive)	> 100 µM (inactive)	> 100 µM (inactive)			> 100 µM (inactive)	> 100 µM (inactive)	> 100 µM (inactive)	> 100 µM (inactive)		> 100 µM (inactive)	> 100 µM (inactive)
O=C1CCC(=O)C12CCc1cccc(O)c12		> 100 µM (inactive)		> 100 µM (inactive)	> 100 µM (inactive)	> 100 µM (inactive)	> 100 µM (inactive)	> 100 µM (inactive)		> 100 µM (inactive)	> 100 µM (inactive)	> 100 µM (inactive)	39 µM (inactive)			> 100 µM (inactive)	> 100 µM (inactive)
CCOc1ccc(O)cc1[P+](c1ccccc1)(c1ccccc1)c1ccccc1		5.2 µM (inactive)	2.66 µM (inactive)	3.43 µM (inactive)	6.22 µM (inactive)		16.2 µM (inactive)	3.24 µM (inactive)	3.83 µM (inactive)	8.41 µM (inactive)	1.49 µM (inactive)	4.69 µM (inactive)	4.5 µM (inactive)	1.64 µM (inactive)	1.66 µM (inactive)	3.5 µM (inactive)	
C/C(=N\N=C(\N)S)c1ccc(Oc2ccccc2)cc1	0.971 µM (active)			4.09 µM (inactive)	3.7 µM (inactive)	2.59 µM (inactive)	10.3 µM (inactive)	17.3 µM (inactive)	5.38 µM (inactive)	20.5 µM (inactive)	4.83 µM (inactive)	18.7 µM (inactive)	7.38 µM (inactive)		5.12 µM (inactive)	1.78 µM (inactive)	3.65 µM (inactive)
COc1ccc(OC)c(NC(=O)C2=C(C)NC(C)=C(C(=O)Nc3cc(OC)ccc3OC)C2c2ccco2)c1	27.7 µM (inactive)	> 100 µM (inactive)	> 100 µM (inactive)	> 100 µM (inactive)		> 100 µM (inactive)	> 100 µM (inactive)	> 100 µM (inactive)	> 100 µM (inactive)	> 100 µM (inactive)	> 100 µM (inactive)	> 100 µM (inactive)	> 100 µM (inactive)	> 100 µM (inactive)	51.3 µM (inactive)	63 µM (inactive)	> 100 µM (inactive)
O=C(C#Cc1ccccc1)Nc1ccccc1CC(c1c[nH]c2ccccc12)c1c[nH]c2ccccc12	3.33 µM (inactive)	25.4 µM (inactive)		31.5 µM (inactive)		16.3 µM (inactive)			12.3 µM (inactive)	39.6 µM (inactive)	4.47 µM (inactive)	23.2 µM (inactive)	5.9 µM (inactive)	14.7 µM (inactive)	17.9 µM (inactive)	3.52 µM (inactive)	
O=c1ncc(F)cn1C1OC(CO)C(O)C1O (stereo not given)	> 20.7 µM (inactive)	> 23.9 µM (inactive)	> 52 µM (inactive)	> 69.2 µM (inactive)	> 80.5 µM (inactive)	> 30.8 µM (inactive)	> 44 µM (inactive)	23.6 µM (inactive)	> 34.9 µM (inactive)	> 30.7 µM (inactive)	7.38 µM (inactive)	> 36.6 µM (inactive)	6.24 µM (inactive)	> 30.5 µM (inactive)		15.1 µM (inactive)	23.8 µM (inactive)
Cc1ccc(O)c(/N=N/c2ccc(S(=O)(=O)O)cc2)n1	> 100 µM (inactive)	> 100 µM (inactive)		> 100 µM (inactive)		> 100 µM (inactive)	> 100 µM (inactive)	> 100 µM (inactive)	> 100 µM (inactive)		> 100 µM (inactive)	> 100 µM (inactive)			> 100 µM (inactive)	> 100 µM (inactive)	> 100 µM (inactive)
